Assay results as given in ChEMBL document CHEMBL1201862, “PubChem BioAssay data set” (2004).
The source made the active and inactive calls.

Tests used:
[1] = target: Histone-lysine N-methyltransferase NSD2 (Homo sapiens, UniProt O96028); format: biochemical
[2] = target: T1, Trace amine-associated receptor 1 (Homo sapiens, UniProt Q96RJ0); experiment: Counterscreen for antagonists of the human trace amine associated receptor 1 (hTAAR1): Fluorescence-based cell-based high throughput dose response assay to identify TAAR1 Agonists.; format: functional
T1 sequence (Q96RJ0 whole entry): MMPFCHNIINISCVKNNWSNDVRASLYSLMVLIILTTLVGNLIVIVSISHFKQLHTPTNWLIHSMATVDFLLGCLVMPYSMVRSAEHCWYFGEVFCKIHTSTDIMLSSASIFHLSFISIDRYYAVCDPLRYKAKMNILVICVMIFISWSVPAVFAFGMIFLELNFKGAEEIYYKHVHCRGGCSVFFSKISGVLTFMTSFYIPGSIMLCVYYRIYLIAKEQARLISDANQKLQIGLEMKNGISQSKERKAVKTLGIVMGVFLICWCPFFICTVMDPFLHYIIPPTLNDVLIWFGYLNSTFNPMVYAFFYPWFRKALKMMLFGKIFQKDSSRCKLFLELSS

[3] = Counterscreen for antagonists of the human trace amine associated receptor 1 (hTAAR1): Fluorescence-based cell-based high throughput dose response assay to identify nonselective Ga16 antagonists.; format: functional
[4] = target: T1, Trace amine-associated receptor 1; experiment: Fluorescence-based cell-based high throughput dose response assay to identify antagonists of the human trace amine associated receptor 1 (TAAR1).; format: functional
[5] = Counterscreen for […] of the human trace amine associated receptor 1 (TAAR1): Fluorescence-based cell-based high throughput dose response assay to identify nonselective Ga16 agonists.; format: functional
Beta-lactamase [6] = target: T2, Beta-lactamase (Pseudomonas aeruginosa, UniProt Q79MP6); experiment: IMP-1 metallo-beta-lactamase inhibitors, dose response, selectivity assay for VIM-2 inhibitor project, biochemical, epi-absorbance (AID 1920)
T2 sequence (Q79MP6 whole entry): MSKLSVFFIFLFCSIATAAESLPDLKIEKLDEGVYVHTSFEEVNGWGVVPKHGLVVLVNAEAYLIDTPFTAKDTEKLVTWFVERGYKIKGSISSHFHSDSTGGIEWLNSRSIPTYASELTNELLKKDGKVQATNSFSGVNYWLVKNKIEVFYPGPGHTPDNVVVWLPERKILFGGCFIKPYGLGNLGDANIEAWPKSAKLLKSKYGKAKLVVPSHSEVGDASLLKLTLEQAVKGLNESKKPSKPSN

Beta-lactamase [7] = target: T2, Beta-lactamase; experiment: […] counterscreen for selective VIM-2 inhibitors: dose response biochemical high throughput screening assay to identify inhibitors of IMP-1 metallo-beta-lactamase.
Beta-lactamase [8] = target: Beta-lactamase (Salmonella choleraesuis (strain SC-B67), UniProt Q5J463); experiment: Epi-absorbance-based counterscreen for selective VIM-2 inhibitors: dose response biochemical high throughput screening assay to identify inhibitors of TEM-1 serine-beta-lactamase.
Sequence of Beta-lactamase (Salmonella choleraesuis (strain SC-B67), UniProt Q5J463) (Q5J463 whole entry): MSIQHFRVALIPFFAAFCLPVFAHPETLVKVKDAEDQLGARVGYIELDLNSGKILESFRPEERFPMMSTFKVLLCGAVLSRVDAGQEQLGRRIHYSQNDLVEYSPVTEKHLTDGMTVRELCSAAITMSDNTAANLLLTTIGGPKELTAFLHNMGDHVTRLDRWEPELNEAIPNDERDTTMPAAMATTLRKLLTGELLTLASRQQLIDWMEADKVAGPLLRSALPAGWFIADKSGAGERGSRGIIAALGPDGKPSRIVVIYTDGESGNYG

Vero = experiment: Vero cell toxicity, dose response, cytotoxicity control, plate reader, cherry-pick samples (AID 687020); format: functional, cell-based; settings: Chlorocebus sabaeus
A549 = experiment: A549 cell toxicity, dose response, cytotoxicity control, plate reader, cherry-pick samples (AID 687028); format: functional, cell-based; settings: Homo sapiens
[9] = target: T3, Matrix metalloproteinase-14 (Homo sapiens, UniProt P50281); experiment: SAR confirmation of uHTS hits for a small molecule inhibitors of MT1-MMP activation in a fluorescence assay.; format: functional
[10] = target: T3, Matrix metalloproteinase-14; experiment: Dose Response confirmation of uHTS hits for a small molecule inhibitors of MT1-MMP activation in a fluorescence assay set 2.; format: functional
[11] = target: 72 kDa type IV collagenase (Homo sapiens, UniProt P08253); experiment: Dose Response validation of uHTS RPN11 inhibitor hits using a MMP-2 Fluorescence assay.; format: functional
Sequence of 72 kDa type IV collagenase (P08253 whole entry, the tested form may be a part): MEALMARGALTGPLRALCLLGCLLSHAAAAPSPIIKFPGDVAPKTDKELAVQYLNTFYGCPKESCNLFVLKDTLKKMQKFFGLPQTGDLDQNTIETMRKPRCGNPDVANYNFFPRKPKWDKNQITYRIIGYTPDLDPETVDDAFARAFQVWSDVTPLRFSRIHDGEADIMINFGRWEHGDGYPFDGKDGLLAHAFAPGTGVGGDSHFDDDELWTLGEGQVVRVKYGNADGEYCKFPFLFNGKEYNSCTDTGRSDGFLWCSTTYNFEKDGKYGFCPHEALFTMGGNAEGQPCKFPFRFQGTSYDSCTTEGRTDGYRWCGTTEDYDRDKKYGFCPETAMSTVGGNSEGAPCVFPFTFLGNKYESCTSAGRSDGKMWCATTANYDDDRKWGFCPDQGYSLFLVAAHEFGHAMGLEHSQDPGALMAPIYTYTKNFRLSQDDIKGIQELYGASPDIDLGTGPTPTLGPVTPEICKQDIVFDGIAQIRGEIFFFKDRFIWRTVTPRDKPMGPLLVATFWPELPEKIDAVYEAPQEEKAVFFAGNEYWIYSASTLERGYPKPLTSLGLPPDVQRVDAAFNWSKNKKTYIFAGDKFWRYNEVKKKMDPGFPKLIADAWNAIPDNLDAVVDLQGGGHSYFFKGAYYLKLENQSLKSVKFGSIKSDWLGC

[12] = target: Arf-GAP with SH3 domain, ANK repeat and PH domain-containing protein 1 (Homo sapiens, UniProt Q9ULH1); format: functional;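 also: biochemical fluorescence polarization dose–response screen measuring inhibition of ASAP1; ASAP1 GAP domain stimulating GTP hydrolysis by truncated human ARF1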
Sequence of Arf-GAP with SH3 domain, ANK repeat and PH domain-containing protein 1 (Q9ULH1 whole entry, the tested form may be a part): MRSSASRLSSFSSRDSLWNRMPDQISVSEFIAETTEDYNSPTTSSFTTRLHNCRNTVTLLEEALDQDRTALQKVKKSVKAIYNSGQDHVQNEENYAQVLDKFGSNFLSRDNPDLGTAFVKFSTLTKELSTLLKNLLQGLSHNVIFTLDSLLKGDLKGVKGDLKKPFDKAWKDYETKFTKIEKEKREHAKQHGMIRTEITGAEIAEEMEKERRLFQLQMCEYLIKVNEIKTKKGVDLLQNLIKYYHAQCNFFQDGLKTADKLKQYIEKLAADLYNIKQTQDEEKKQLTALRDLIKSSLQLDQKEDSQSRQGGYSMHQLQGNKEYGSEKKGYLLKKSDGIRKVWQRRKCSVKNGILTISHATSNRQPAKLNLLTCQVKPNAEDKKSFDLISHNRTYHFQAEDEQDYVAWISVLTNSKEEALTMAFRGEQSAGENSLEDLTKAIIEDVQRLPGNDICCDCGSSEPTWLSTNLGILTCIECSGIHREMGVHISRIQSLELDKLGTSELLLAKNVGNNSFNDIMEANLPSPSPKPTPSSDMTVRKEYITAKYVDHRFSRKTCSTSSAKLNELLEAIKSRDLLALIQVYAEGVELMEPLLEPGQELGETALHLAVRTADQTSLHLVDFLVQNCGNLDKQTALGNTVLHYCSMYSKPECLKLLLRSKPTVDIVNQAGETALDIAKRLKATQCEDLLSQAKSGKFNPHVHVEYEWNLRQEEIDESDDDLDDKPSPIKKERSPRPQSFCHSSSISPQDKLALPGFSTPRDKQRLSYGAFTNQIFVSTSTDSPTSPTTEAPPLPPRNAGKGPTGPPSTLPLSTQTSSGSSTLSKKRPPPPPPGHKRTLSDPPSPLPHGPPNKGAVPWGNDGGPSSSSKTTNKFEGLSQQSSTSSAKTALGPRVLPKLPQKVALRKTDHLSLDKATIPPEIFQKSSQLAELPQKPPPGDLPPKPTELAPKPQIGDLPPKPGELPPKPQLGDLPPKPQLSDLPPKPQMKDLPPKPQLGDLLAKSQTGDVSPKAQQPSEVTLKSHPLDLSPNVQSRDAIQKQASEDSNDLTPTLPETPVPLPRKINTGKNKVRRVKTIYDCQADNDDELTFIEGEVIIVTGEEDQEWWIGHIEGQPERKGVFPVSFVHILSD

Prothrombin = Prothrombin (Bos taurus, UniProt P00735); experiment: thrombin inhibition, dose response, biochemical, fluorescence polarization, uHTS hits (AID 602369); format: functional
[13] = target: 26S proteasome non-ATPase regulatory subunit 14 (Homo sapiens, UniProt O00487); experiment: inhibition of proteasome subunit RPN11 – biochemical, fluorescence polarization, uHTS hits, confirmation (AID 602368); format: functional
Sequence of 26S proteasome non-ATPase regulatory subunit 14 (O00487 whole entry): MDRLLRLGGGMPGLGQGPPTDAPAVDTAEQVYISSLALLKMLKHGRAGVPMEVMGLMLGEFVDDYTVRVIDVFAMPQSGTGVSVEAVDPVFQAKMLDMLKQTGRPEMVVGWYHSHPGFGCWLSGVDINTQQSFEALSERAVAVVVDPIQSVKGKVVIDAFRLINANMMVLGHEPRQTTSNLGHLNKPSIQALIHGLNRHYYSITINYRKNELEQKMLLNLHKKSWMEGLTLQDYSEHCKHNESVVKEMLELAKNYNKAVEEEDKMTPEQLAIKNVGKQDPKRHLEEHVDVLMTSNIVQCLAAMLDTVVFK

[14] = target: Long-chain-fatty-acid--AMP ligase FadD28 (Mycobacterium tuberculosis, UniProt P9WQ59); experiment: Fluorescence polarization aasay to screen for inhibitors that compete for the binding of FadD28 to a bisubstrate Measured in Biochemical System Using Plate Reader - 2147-01_Inhibitor_Dose_CherryPick_Activity.; format: functional, Mycobacterium tuberculosis H37Rv
Sequence of Long-chain-fatty-acid--AMP ligase FadD28 (P9WQ59 whole entry): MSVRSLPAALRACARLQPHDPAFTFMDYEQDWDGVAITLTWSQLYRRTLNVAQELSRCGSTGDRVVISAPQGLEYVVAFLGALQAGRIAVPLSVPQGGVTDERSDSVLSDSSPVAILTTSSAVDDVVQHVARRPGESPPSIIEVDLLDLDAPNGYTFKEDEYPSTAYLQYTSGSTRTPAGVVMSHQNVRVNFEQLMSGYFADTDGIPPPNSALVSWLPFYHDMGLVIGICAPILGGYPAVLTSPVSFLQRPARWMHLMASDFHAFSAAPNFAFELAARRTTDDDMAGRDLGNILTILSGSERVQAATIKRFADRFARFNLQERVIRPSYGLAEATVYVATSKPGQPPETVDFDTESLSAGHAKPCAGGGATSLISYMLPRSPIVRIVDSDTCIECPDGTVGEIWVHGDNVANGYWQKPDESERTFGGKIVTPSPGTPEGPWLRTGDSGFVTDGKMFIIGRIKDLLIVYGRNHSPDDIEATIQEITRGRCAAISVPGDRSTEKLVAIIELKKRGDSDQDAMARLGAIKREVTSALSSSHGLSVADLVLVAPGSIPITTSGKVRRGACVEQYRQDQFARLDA

[15] = HEK293T cytotoxicity, dose response, cytotoxicity control for miR-122 modulator project, cell-based, inhibitor set, cherry-pick, set 2 (AID 720697); format: functional
[16] = control 3'UTR Renilla luciferase suppression, dose response, counter-screen for Shn3 inhibitor project, cell-based, Clone20-Shn3RL, cherry-picked (AID 624133); format: functional
[17] = HepG2 cell cytotoxicity, dose response, cytotoxicity control for Shn3 inhibitor project, CellTiter-Glo, cherry-picked (AID 624134); format: functional, cell-based
[18] = cytotoxicity toward DRD oncogenic fibroblasts, dose response, cell-based, non-viral oncogenic, luminescence (AID 1934); format: functional; settings: Homo sapiens
BJ [19] = experiment: cytotoxicity toward BJ-TERT fibroblasts, dose response, cell-based, RAS-independent, luminescence (AID 1933); format: functional; settings: Homo sapiens
BJ [20] = experiment: cells; format: functional, cell-based; settings: Homo sapiens
[21] = Shn3 3'UTR reporter inhibitors, dose response, cell-based, Clone20 osteoblasts, firefly luciferase, cherry-picked (AID 624132); format: functional;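 also: firefly luciferase luminescence from reporter carrying the Shn3 3'UTR in osteoblasts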
[22] = ADAM10 inhibitors, peptide cleavage, dose response, biochemical, QFRET (AID 743254);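 also: ADAM10 enzyme with the DM2 quenched FRET peptide as substrate; EDANS fluorescence gain as the protease cuts the substrate; inhibitor potency against ADAM10 proteolytic activity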
BJ [23] = experiment: cytotoxicity toward BJ-TERT-LT-ST fibroblasts, dose response, cell-based, RAS-independent, luminescence (AID 1935); format: functional; settings: Homo sapiens;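 also: BJ fibroblasts immortalized with TERT plus LT and ST oncogenes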
[24] = target: Disintegrin and metalloproteinase domain-containing protein 17 (Homo sapiens, UniProt P78536); experiment: ADAM17 protease inhibitors, dose response, counter-screen for ADAM10 exosite inhibitor project, biochemical, quenched FRET substrate (AID 743253)

Sequence of Histone-lysine N-methyltransferase NSD2 (O96028 whole entry): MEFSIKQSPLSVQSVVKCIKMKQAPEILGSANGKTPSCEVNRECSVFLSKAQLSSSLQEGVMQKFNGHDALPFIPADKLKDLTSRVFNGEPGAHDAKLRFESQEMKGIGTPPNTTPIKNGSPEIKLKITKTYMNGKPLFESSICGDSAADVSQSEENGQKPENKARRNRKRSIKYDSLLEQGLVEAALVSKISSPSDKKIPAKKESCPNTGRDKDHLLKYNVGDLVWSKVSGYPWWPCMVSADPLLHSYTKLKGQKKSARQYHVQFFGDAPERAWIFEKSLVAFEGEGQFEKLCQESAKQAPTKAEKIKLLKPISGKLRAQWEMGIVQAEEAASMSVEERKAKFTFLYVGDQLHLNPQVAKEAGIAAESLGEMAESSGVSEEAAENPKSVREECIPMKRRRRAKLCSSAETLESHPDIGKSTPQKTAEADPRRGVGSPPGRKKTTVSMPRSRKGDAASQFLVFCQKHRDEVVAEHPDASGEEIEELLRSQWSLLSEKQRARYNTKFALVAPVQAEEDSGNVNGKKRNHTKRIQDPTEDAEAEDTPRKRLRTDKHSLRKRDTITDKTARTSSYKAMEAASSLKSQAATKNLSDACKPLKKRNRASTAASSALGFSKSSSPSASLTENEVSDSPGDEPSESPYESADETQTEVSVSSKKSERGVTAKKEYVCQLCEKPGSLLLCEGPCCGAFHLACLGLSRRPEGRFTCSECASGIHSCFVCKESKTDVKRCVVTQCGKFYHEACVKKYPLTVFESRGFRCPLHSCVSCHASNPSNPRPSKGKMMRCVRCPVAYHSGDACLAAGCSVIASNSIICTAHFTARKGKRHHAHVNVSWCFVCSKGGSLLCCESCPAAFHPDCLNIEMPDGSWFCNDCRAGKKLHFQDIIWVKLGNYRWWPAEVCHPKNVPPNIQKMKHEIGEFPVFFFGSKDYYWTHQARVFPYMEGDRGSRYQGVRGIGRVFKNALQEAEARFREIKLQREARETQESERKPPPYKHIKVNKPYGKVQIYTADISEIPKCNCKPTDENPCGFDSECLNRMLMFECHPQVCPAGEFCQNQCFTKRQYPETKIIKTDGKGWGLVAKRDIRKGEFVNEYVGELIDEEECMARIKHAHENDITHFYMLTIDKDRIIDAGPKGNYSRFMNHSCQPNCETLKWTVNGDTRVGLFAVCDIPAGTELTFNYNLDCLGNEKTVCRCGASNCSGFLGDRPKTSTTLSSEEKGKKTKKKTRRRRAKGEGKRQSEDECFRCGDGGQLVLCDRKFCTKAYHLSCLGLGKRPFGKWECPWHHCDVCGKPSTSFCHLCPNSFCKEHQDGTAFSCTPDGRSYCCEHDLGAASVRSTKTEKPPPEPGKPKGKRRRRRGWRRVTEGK

## CCN=C(S)N(CCCN(CC)CC)Cc1cc2cc3c(cc2nc1O)OCO3
[1]
  AC50: 15.7 µM (active)

## O=C(CCSCc1cccc(F)c1)NCCc1ccccc1
[2]
  EC50: > 29.9 µM (inactive)
[3]
  IC50: > 29.9 µM (inactive)
[4]
  IC50: 7.43 µM (active)
[5]
  EC50: > 29.9 µM (inactive)

## Fc1ccccc1-c1nnc(S)n1Cc1ccccc1
Beta-lactamase [6]
  IC50: > 59.6 µM (inactive)
Beta-lactamase [7]
  IC50: > 59.6 µM (inactive)
Beta-lactamase [8]
  IC50: > 59.6 µM (inactive)

## Cc1cccn2c(=O)c(/C=C(\C#N)C(=O)NC3CCS(=O)(=O)C3)c(N3CCC(C(N)=O)CC3)nc12 (stereo not drawn)
cells
  AC50: 4.38 µM (active)

## Cc1cccc(C(=O)N2CCC(=O)N([C@H](COCc3ccc(Cl)cc3)Cc3ccccc3)CC2)c1
Vero
  AC50: 33.6 µM (active)
A549
  AC50: 28.5 µM (active)

## CN1/C(=C\C(=O)c2cncc(Br)c2)C(C)(C)c2ccccc21
[9]
  IC50: 66.5 µM (inactive)
[10]
  IC50: 23.7 µM (inactive)

## N#Cc1ccc(-c2ccc(OCC(=O)NCC(=O)Nc3ccc(F)c(F)c3F)cc2)cc1
[11]
  IC50: > 100 µM (inactive)
[12]
  IC50: 26.1 µM (inactive)
Prothrombin
  IC50: > 100 µM (inactive)
[13]
  IC50: 12.7 µM (active)

## COc1cccc(-n2nnnc2SCC(=O)Nc2cccc(C)n2)c1
[14]
  AC50: 50.1 µM (active)

## CC1CCN(CCc2nc3cc(NC(=O)Nc4ccccc4)ccc3n2C)CC1
[15]
  AC50: 2.74 µM (active)

## COc1ccc(C)c2sc(N(CCCN(C)C)C(=O)c3ccc(S(=O)(=O)N4CCc5ccccc5C4)cc3)nc12
[16]
  AC50: 5.51 µM (active)
[17]
  AC50: 2.98 µM (active)
[18]
  EC50: 4.25 µM (active)
BJ [19]
  EC50: 1.48 µM (inconclusive)
BJ [20]
  EC50: 5.65 µM (active)
[21]
  AC50: 4.4 µM (active)
[22]
  IC50: > 69.5 µM (inactive)
BJ [23]
  EC50: 2.13 µM (inconclusive)
[24]
  IC50: > 69.5 µM (inactive)
